Test results: US10780067B2, “Endoxifen for local transdermal therapy to the breast” (Northwestern University, priority 2016, dated 2020)

Assays:
[1] = Plasma, breast adipose tissue and NAF concentrations of tamoxifen and its metabolites (LC-MS/MS), presurgical trial; type: in vivo, human; conditions: in vivo
Description: All participants provided informed consent. Baseline assessments included a history and physical, explanation of gel application, completion of the Breast Cancer Prevention Trial Eight Symptom Scale (BESS) questionnaire, collection of a venous blood sample, and collection of nipple aspirate fluid (NAF) from NAF yielders. […] Treatment began within 5 days post-randomization and ended on the day prior to surgical resection. Participants were instructed to apply the gel to the entire skin envelope of each breast each morning, after a shower. Duration of therapy was 6-10 weeks. Compliance was assessed through participant diaries, counts of returned pills and of returned gel canisters. Participants who took at least 80% of the prescribed dose were considered compliant.
Assessments similar to those performed at baseline were repeated on the day prior to, or on the morning of surgery. During surgery, breast adipose tissue from the surgical sample was snap frozen and stored at −80° C. for measurement of tamoxifen and metabolites. The samples were obtained from a location adjacent to the DCIS lesion to provide uniformity between participants undergoing breast conservation and mastectomy. The paraffin block of the core and excision samples were acquired by the recruiting institution and 10 sections from each specimen were submitted to the NU Pathology Core Facility. The sections were cut in batches (with pre- and post-treatment samples in the same batch), shipped cold, and processed for immunohistochemistry within four weeks.
(Z)-tamoxifen, (Z)-NDT, (E) and (Z)-4-OHT, and (Z)-endoxifen were measured by liquid chromatography-tandem mass spectrometry with a turbo ion spray interface operating in positive mode (API 3000; AB SCIEX, Foster City, Calif.). […] For analysis of NAF, samples were collected in a capillary tube and diluted with 200 μL of phosphate buffered saline; 100 μL of the diluted NAF sample was used for analysis. Breast adipose tissue samples, 25 mg, were minced and treated with 125 μL of […] and extracted as described above.
Retention times for (Z)-tamoxifen, (Z)-NDT, (Z)-4-OHT, (E)-4-OHT and (Z)-endoxifen were 7.3, 6.8, 5.1, 4.7 and 4.5 min, respectively. […] In three participants, matched samples were not available: breast adipose tissue was not collected in two, and the plasma sample was missing in one.
Since the fraction of E and Z isoforms of 4-OHT was of particular interest, we used an additional validated method to study plasma concentrations of these metabolites in a different laboratory (Eurofins Medinet, Chantilly, Va.): Plasma from blood samples collected in lithium-heparin tubes was frozen at −20° C., shipped in batches on dry ice to them Eurofins Medinet central laboratory; LC-MS/MS was used for the simultaneous determination of (E) 4-OHT and (Z) 4-OHT, with a lower limit of quantitation (LOQ) of 10 pg/mL and upper LOQ of 10,000 pg/mL. Eurofins Medinet developed and validated them method for BHR Pharma, in accordance with the FDA Guidance on Bioanalytical Method Validation.

MCF-7 xenograft = conditions: dose of 2-8 mg/kg; cited from earlier work
MCF7 xenograft [2] = conditions: simulation using human PK; cited from earlier work
[3] = oral dose of 160 mg daily; cited from earlier work
MCF7 xenograft [4] = conditions: MCF7 xenograft bearing mice, cited from earlier work
ERβ = ERβ (Homo sapiens, UniProt Q92731); conditions: cited from earlier work
Chain of ERβ (Q92731 whole entry): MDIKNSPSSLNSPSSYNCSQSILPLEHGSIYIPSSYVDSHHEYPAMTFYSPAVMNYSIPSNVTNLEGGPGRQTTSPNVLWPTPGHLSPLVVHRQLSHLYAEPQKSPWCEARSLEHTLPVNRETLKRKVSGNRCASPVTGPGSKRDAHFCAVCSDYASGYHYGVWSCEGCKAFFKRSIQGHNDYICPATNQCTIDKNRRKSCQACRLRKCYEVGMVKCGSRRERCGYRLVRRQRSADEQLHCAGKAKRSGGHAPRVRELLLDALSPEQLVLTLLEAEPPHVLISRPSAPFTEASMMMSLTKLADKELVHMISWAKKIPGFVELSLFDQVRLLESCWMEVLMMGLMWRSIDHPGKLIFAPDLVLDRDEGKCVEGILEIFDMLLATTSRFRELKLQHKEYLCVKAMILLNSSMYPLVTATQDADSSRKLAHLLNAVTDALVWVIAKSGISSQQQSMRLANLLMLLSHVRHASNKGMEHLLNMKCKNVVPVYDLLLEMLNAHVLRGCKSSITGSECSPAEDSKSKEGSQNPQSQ

ERα = target: T1, ERα (Homo sapiens, UniProt P03372); conditions: cited from earlier work
T1 sequence (P03372 1-595): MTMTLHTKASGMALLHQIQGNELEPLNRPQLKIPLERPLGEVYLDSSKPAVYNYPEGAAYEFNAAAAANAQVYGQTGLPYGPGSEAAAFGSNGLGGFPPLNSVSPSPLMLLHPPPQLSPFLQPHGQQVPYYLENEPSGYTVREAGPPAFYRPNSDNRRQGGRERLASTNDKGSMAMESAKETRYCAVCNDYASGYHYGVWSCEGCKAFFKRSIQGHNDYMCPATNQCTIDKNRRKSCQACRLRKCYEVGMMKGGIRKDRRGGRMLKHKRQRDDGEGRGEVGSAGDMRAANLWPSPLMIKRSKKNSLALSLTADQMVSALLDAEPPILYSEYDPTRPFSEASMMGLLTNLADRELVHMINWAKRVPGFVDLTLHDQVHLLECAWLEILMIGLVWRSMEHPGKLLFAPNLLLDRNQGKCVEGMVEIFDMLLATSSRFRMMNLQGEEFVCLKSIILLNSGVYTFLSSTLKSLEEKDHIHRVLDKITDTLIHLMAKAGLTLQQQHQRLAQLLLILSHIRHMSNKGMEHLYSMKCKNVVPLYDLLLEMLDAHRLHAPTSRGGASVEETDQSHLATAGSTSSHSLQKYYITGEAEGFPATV

[5] = alcoholic solution of ENX 0.2 mg/mL with 0.5% oleic acid; cited from earlier work
[6] = female, human, in vivo, 72 h
Description: (§1) Nonpregnant women scheduled for mastectomy to prevent or treat breast cancer were recruited through the Lynn Sage Comprehensive Breast Center of Northwestern Medicine. All participants were randomized to patch application to one surgical breast (per participant) or the abdominal skin. The diclofenac patch (Flector® patch, 10 cm×14 cm) is a semi-occlusive, bioadhesive patch containing 129.7 mg of diclofenac acid. After baseline evaluation, the participants were instructed on site of patch application and to replace patch every 12 h over 72 h prior to surgery.
(§2) The breast group wore the patch over the upper outer breast, with the lower inner corner of the patch at the level of the nipple (FIG. 3b). The abdominal group wore the patch on the lower abdomen on the side opposite the planned mastectomy (FIG. 3a). Participants were assessed for baseline signs/symptoms and then by telephone the second day of the treatment and on the day of surgery. All adverse events were coded using the NCI Common Terminology Criteria for Adverse Events version 4.0.
(§3) On the day of surgery, the transdermal patch was removed in the operating room prior to anesthesia and 30 mL venous blood was collected with anticoagulant K2EDTA (BD Vacutainer®, BD Hemogard™ product no. 366643). Tissue samples from the mastectomy specimen were obtained from eight predetermined locations of one breast per participant (FIG. 3b), four central/periareolar and four peripheral samples 5 cm away, at 12, 3, 6, and 9 O'clock. Each tissue sample was weighed and snap-frozen in liquid nitrogen and kept in −80° C. until analysis.
(§4) Formalin-fixed, paraffin-embedded (FFPE) samples were taken from locations adjacent to the drug assay samples, for histological evaluation of tissue composition, and were available from all subjects.
(§5) The concentrations of all the drugs used in rats and humans were determined by liquid chromatography-tandem mass spectroscopy (API 3000; AB SCIEX, Foster City, Calif., USA). […] The mobile phase was A: 0.1% formic acid in water (v/v) and B: 0.1% formic acid in acetonitrile (v/v). […] The lowest limits of quantification (LLOQ) were as follow: tamoxifen and N-desmethyl tamoxifen (NDT) (plasma 10 ng/mL; tissue 40 ng/g); 4-OHT and endoxifen (plasma 0.5 ng/mL; tissue 2 ng/g); telapristone and N-desmethyl telapristone (d-telapristone) (plasma 1 ng/mL; tissue 1.5 ng/g); and diclofenac (plasma 0.5 ng/mL; tissue 2 ng/g).
(§6) The medians and IQR's were reported for diclofenac concentrations by breast region and patch groups (Table 9). To compare breast concentrations by site of patch application, we replaced non-detectable values with “zero” and considered the median concentration from eight samples as the representative breast concentration per individual for statistical purposes. The Wilcoxon rank-sum test was used to assess median concentration differences between patch groups, among regions of the breast, and by menopausal status within each treatment group.
(§7) Diclofenac was determined by LC-MS/MS (API 3000; AB SCIEX, Foster City, Calif.).

clinical = conditions: female, human, in vivo
Description: as §1, §2, §3, §4, §5, §6, §7

In the case of 4-hydroxytamoxifen [4-OHT gel], the “NAF concentration of NDT, individual participants” value [1] is reported as “undetectable”, the “NAF concentration of endoxifen” value [1] is reported as “undetectable” and the “NAF concentration of tamoxifen, individual participants” value [1] is reported as “undetectable”. The “participants with 4-OHT detectable in breast tissue” value [1] was 9 of 10, the “participants with 4-OHT detectable in plasma” value [1] was 5 and the “breast adipose tissue concentrations of (Z) 4-OHT (discussion)” value ([1]; po) was “over 5 ng/mg”.
In the case of `CC/C(=C(\c1ccc(O)cc1)c1ccc(OCCNC)cc1)c1ccccc1.O=C(O)CC(O)(CC(=O)O)C(=O)O` [ENX citrate], the “efficacy against MCF-7 xenograft model” value (MCF-7 xenograft) is given as “shows efficacy”.
For `CC/C(=C(\c1ccc(O)cc1)c1ccc(OCCNC)cc1)c1ccccc1` [Endoxifen, N-desmethyl-4-hydroxytamoxifen], the “TGI at day 21, 0.5 mg/day oral” value (MCF7 xenograft [2]) is listed as 67%, the “TGI at day 21, 1 mg/day oral” value (MCF7 xenograft [2]) is listed as 87% and the “TGI at day 21, 4 mg/day oral” value (MCF7 xenograft [2]) is listed as 97%. The MTT [3] was “not reached”, the “Cstasis (plasma ENX showing 100% TGI)” value (MCF7 xenograft [4]) was 53 nM and the “KC50 of plasma ENX” value (MCF7 xenograft [4]; tumor growth inhibition, oral ENX) was 14 nM. For the same compound, the “binding affinity for ERβ relative to TAM” value (ERβ) was 56 fold, the “binding affinity for ERα relative to TAM” value (ERα) was 25 fold and the “in vitro human skin penetration” value [5] was “penetrates human skin efficiently”.
With `O=C(O)Cc1ccccc1Nc1c(Cl)cccc1Cl` [diclofenac] the “diclofenac breast concentration, abdominal patch, All locations” value [6] was 0.13 (0.00, 0.37) ng/g tissue, the “diclofenac breast concentration, abdominal patch, sampling location 6” value [6] was 0.04 (0.00, 0.48) ng/g tissue and the “diclofenac breast concentration, breast patch, All locations” value [6] was 0.77 (0.23, 2.97) ng/g tissue. The “diclofenac breast concentration, breast patch, sampling location 6” value [6] was 0.31 (0.00, 1.23) ng/g tissue, the “diclofenac plasma concentration, abdominal patch” value [6] was 1.06 (0.81, 1.88) ng/mL and the “diclofenac plasma concentration, breast patch” value [6] was 1.02 (0.71, 1.78) ng/mL. For the same compound, the “tissue samples with detectable diclofenac, abdominal group” value [6] was 58%, the “tissue samples with detectable diclofenac, breast group” value [6] was 79% and the concentration at 72 h (clinical; diclofenac breast concentration, abdominal patch, All locations) was 0.13 ng/g. For the same compound, the concentration at 72 h (clinical; diclofenac breast concentration, abdominal patch, sampling location 1) was 0 ng/g, the concentration at 72 h (clinical; diclofenac breast concentration, abdominal patch, sampling location 2) was 0.18 ng/g and the concentration at 72 h (clinical; diclofenac breast concentration, abdominal patch, sampling location 3) was 0.2 ng/g. The concentration at 72 h (clinical; diclofenac breast concentration, abdominal patch, sampling location 4) was 0.19 ng/g, the concentration at 72 h (clinical; diclofenac breast concentration, abdominal patch, sampling location 5) was 0.11 ng/g and the concentration at 72 h (clinical; diclofenac breast concentration, abdominal patch, sampling location 6) was 0.04 ng/g. The concentration at 72 h (clinical; diclofenac breast concentration, abdominal patch, sampling location 7) was 0.14 ng/g, the concentration at 72 h (clinical; diclofenac breast concentration, abdominal patch, sampling location 8) was 0.08 ng/g and the concentration at 72 h (clinical; diclofenac breast concentration, breast patch, All locations) was 0.77 ng/g. The concentration at 72 h (clinical; diclofenac breast concentration, breast patch, sampling location 1) was 0.63 ng/g, the concentration at 72 h (clinical; diclofenac breast concentration, breast patch, sampling location 2) was 0.64 ng/g and the concentration at 72 h (clinical; diclofenac breast concentration, breast patch, sampling location 3) was 0.48 ng/g. For the same compound, the concentration at 72 h (clinical; diclofenac breast concentration, breast patch, sampling location 4) was 1.64 ng/g, the concentration at 72 h (clinical; diclofenac breast concentration, breast patch, sampling location 5) was 1.98 ng/g and the concentration at 72 h (clinical; diclofenac breast concentration, breast patch, sampling location 6) was 0.31 ng/g. The concentration at 72 h (clinical; diclofenac breast concentration, breast patch, sampling location 7) was 1.12 ng/g, the concentration at 72 h (clinical; diclofenac breast concentration, breast patch, sampling location 8) was 0.58 ng/g and the concentration at 72 h (clinical; diclofenac plasma concentration, abdominal patch) was 1.06 ng/mL. For the same compound, the concentration at 72 h (clinical; diclofenac plasma concentration, breast patch) was 1.02 ng/mL, the concentration at 72 h (clinical; median breast concentration of diclofenac with IQR, fatty samples) was 8.71 ng/g and the concentration at 72 h (clinical; median breast concentration of diclofenac with IQR, fibrous samples) was 0.19 ng/g. The concentration at 72 h (clinical; median breast concentration of diclofenac with IQR, mixed samples) was 0.52 ng/g, the concentration at 72 h (clinical; median diclofenac breast concentration, abdominal group, medium-sized breasts) was 0.21 ng/g and the concentration at 72 h (clinical; median diclofenac breast concentration, abdominal group, small breasts) was 0.6 ng/g. The concentration at 72 h (clinical; median diclofenac breast concentration, breast group, medium-sized breasts) was 1.31 ng/g, the concentration at 72 h (clinical; median diclofenac breast concentration, breast group, small breasts) was 1.12 ng/g and the concentration at 72 h (clinical; median diclofenac concentration, central locations (1 through 4), abdominal group) was 0.85 ng/g. For the same compound, the concentration at 72 h (clinical; median diclofenac concentration, central locations (1 through 4), breast group) was 4.91 ng/g, the concentration at 72 h (clinical; median diclofenac concentration, peripheral locations (5 through 8), abdominal group) was 0.75 ng/g and the concentration at 72 h (clinical; median diclofenac concentration, peripheral locations (5 through 8), breast group) was 9.92 ng/g. It also gave a concentration at 72 h (clinical; range of diclofenac concentrations in tissue samples of three women, abdominal group) of 1.2 to 4.8 ng/g.
